# Source: patent US7901906B2, “Targeting of MKRN1 for identifying cancer treatment agents” (University of Central Florida Research Foundation, Inc., priority 2006, dated 2011)
# Non-standard residues stand in square brackets, D forms with d. Residues, ends and D or L forms follow the SMILES beside them. *: point of attachment. Nle = CCCC[C@H](N)C(=O)O; Cbz = O=C(OCc1ccccc1)*
# Tested on: MKRN1
# Assay: Levels of ectopically expressed MKRN1 by anti-V5 immunoblotting
# Format: cell-based, human
# Procedure: FIG. 3. MKRN1 interacts with hTERT. (A) Analysis of the physical interaction between hTERT and MKRN1 using the yeast two-hybrid assay. Five domains of hTERT were analyzed for binding to MKRN1. TRF1 bait was used as a negative control. Blue signal on the SG-HWU/X plate indicates activation of the reporter gene, LacZ. S, synthetic; G, galactose; H, histidine (−); W, tryptophan (−); U, uracil (−); X, X-gal. (B) Schematic diagram of MKRN1 domains. Amino acid sequences (SEQ ID NOS 3-5, respectively in order of appearance) surrounding the RING finger domain in MKRN1 and mutants used in this study. Cysteines and a histidine in the RING finger domain are shown in red. Mutated residue in MKRN1^H307E is shown in blue. (C) H1299 cells co-transfected with hTERT-HA and MKRN1-V5 were either untreated or treated for 2 hours with 10 μg/ml ALLnN. Anti-HA immunoprecipitates were analyzed by immunoblotting using an anti-V5 antibody probe. […] (D) H1299 cells co-transfected with Flag-hTERT and MKRN1-V5 were either untreated or treated for 2 hours with 10 μM MG132. Anti-Flag immunoprecipitates were analyzed by immunoblotting using an anti-V5 antibody probe. […] Flag-hTERT was visualized with an anti-Flag antibody probe.
# FIG. 4. MKRN1 functions as an E3 ubiquitin-ligase for hTERT in vitro and in vivo. (A) HA-tagged hTERT (residues 946-1132) was incubated MKRN1 or mutants in the presence of E1, E2, His6-ubiquitin (6×His tag disclosed as SEQ ID NO: 7). Samples were resolved by 6% SDS-PAGE and analyzed by immunoblotting with an anti-HA antibody probe. (B) H1299 cells were co-transfected with Flag-hTERT, HA-ubiquitin, MKRN1-V5, and together with either MKRN1^H307E-V5 or MKRN1^Δ^C-V5 as specified. Cells were untreated or treated with 10 μM MG132 for 2 hours. Anti-Flag immunoprecipitates and cell lysates were analyzed by immunoblotting with anti-HA antibody and anti-V5 antibody probes, respectively. (C) H1299 cells co-transfected with Flag-hTERT and HA-ubiquitin, and together with or without MKRN1-V5 as indicated were treated with 10 μM MG132 for the indicated times. Anti-Flag immunoprecipitates and cell lysates were analyzed by immunoblotting with anti-HA antibody and anti-V5 antibody probes, respectively.
# FIG. 5. Overexpression of MKRN1 decreases telomerase activity and telomere length. (A) HT1080 cells were stably transfected with MKRN1-V5 or an empty vector. The cells were untreated or treated for 2 hours with 10 μM MG132. Cell lysates were analyzed by immunoblotting with anti-V5 antibody probe. (B) Stable HT1080 cell lines (MKRN1 and vector) were harvested at 45 PD, and telomerase activities were measured with different amounts of proteins using the TRAP assay. The lane labeled LB corresponds to the negative control (lysis buffer only). ITAS represents the internal telomerase assay standard. (C) Cell lysates from stable HT1080 cell lines were analyzed by immunoprecipitation with anti-hTERT antibody followed by immunoblotting using same antibody probe. (D) Representative results of RT-PCR analysis for the expression of MKRN1, hTERT, and hTR in stable HT1080 cell lines. RT-PCR products from each sample were normalized to glyceraldehyde-3-phosphate dehydrogenase (GAPDH) signal. (E) Stable HT1080 cell lines were harvested at 45 PD, and genomic DNA was digested with RsaI and HinfI, followed by Southern blotting using a telomere repeat probe.
# H1299 cells were transiently transfected with the expression vectors indicated in the figure legends using TransFast transfection reagent (Promega, Madison, Wis.) according to the manufacturer's instructions. Cells were lysed with buffer containing 0.5% NP-40, 50 mM Tris-HCl (pH 7.5), 150 mM NaCl, 2 mM phenyl methylsulphonyl fluoride. […]
Structure (SMILES),"MKRN1 species in cell lysates (H1299 co-transfected with hTERT-HA and MKRN1-V5, 10 μg/ml ALLnN, 2 hours)","MKRN1 expression (H1299, MKRN1-V5, 10 μM MG132, 2 hours)","unmodified and polyubiquitinated MKRN1 species over time (H1299, MKRN1-V5, 10 μM MG132, indicated times)","amount of MKRN1^ΔC (H1299, MKRN1^ΔC-V5, 10 μM MG132, 2 hours)","MKRN1^H307E expression level, MG132 treatment versus absence (H1299 cotransfected with MKRN1 and MKRN1^H307E, 10 μM MG132)","MKRN1 level in stable HT1080 cells (HT1080 stably expressing MKRN1-V5, 10 μM MG132, 2 hours)"
CCCC[C@@H](C=O)NC(=O)[C@H](CC(C)C)NC(=O)[C@H](CC(C)C)NC(C)=O [ALLnN] (Ac-Leu-Leu-[Nle]-aldehyde),significant increase,,,,,
CC(C)C[C@@H](C=O)NC(=O)[C@H](CC(C)C)NC(=O)[C@H](CC(C)C)NC(=O)OCc1ccccc1 [MG132] (Cbz-Leu-Leu-Leu-aldehyde),,clearly elevated,increased in a time-dependent manner,no effect,~2 fold,substantial increase
